Laboratory results published in patent publication US20230085307A1, “PYRIDAZINONE COMPOUND AND HERBICIDE” (NISSAN CHEMICAL CORPORATION, priority 2019, published 2023).

Tests used:
windgrass [1] = assay: Test Example 5: herbicidal effect by foliage application, plastic box (Table 20, symbol L); format: in vivo, windgrass (Apera spica-venti); conditions: foliage application, evaluated three weeks after application
Procedure, shortened: (§1)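 Plants sown in sterilized diluvial soil and grown 14 days in a greenhouse at 25° C to 30° C, then sprayed on the foliage with the compound's emulsion diluted in water to a predetermined herbicide amount. Injury to weeds and crops scored three weeks after application on a visual rating scale.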

wild oat [2] = assay: Test Example 4: herbicidal effect by soil treatment (Table 19, symbol I); format: in vivo, wild oat (Avena fatua); conditions: amount of applied herbicide 320 g/ha
Excerpt: (§2) [Test Example 4] Herbicidal Effect Test by Soil Treatment
(§3) Sterilized diluvial soil was placed in a plastic box having a length of 21 cm, a width of 13 cm, and a depth of 7 cm. The seeds of each of southern crabgrass, green foxtail, barnyard grass, wild oat, blackgrass, Italian ryegrass, windgrass, velvetleaf, redroot pigweed, lambsquarters, chickweed, false cleavers, persian speedwell, corn, soybean, rice, wheat, beet, and rapeseed were sowed in a spot-like manner and covered with the soil having a thickness of about 1.5 cm. Subsequently, the emulsion agent of the compound of the present invention prepared according to Formulation Example 2 was diluted with water so as to achieve a predetermined herbicide amount, and the diluted emulsion agent was uniformly applied to the surface of the soil with a small-sized spray. The plastic box was placed in a greenhouse at 25° C. to 30° C. for growth of the plants. Three weeks after the herbicide application, the effect of the herbicide on each plant was evaluated according to the criteria of Test Example 1.

redroot pigweed [3] = assay: Test Example 5: herbicidal effect by foliage application, plastic box (Table 20, symbol N); format: in vivo, redroot pigweed (Amaranthus retroflexus); conditions: foliage application, evaluated three weeks after application
Procedure, shortened: as §1

velvetleaf [4] = assay: Test Example 4: herbicidal effect by soil treatment (Table 19, symbol M); format: in vivo, velvetleaf (Abutilon theophrasti); conditions: amount of applied herbicide 320 g/ha
Procedure, shortened: (§4)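 Seeds were sown in sterilized diluvial soil and covered with about 1.5 cm of soil. An emulsion formulation diluted with water to a predetermined herbicide amount was sprayed evenly onto the soil surface. Plants grew in a greenhouse at 25° C. to 30° C., and the effect was scored three weeks after application using criteria from an earlier test.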

green foxtail [5] = assay: Test Example 4: herbicidal effect by soil treatment (Table 19, symbol G); format: in vivo, green foxtail (Setaria viridis); conditions: amount of applied herbicide 320 g/ha
Procedure, shortened: as §4

chickweed [6] = assay: Test Example 5: herbicidal effect by foliage application, plastic box (Table 20, symbol P); format: in vivo, common chickweed (Stellaria media); conditions: foliage application, evaluated three weeks after application
Procedure, shortened: as §1

rice flat sedge = assay: Test Example 3: herbicidal effect by foliage application, Wagner pot (Table 18, symbol E); format: in vivo, rice flat sedge (Cyperus iria); conditions: amount of applied herbicide 320 g/ha
Procedure, shortened: (§5)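 Plants were sown in alluvial soil held under 0.1–0.5 cm standing water and grown 14 days in a greenhouse at 25–30 °C. An emulsifiable formulation, water-diluted to the set dose, was then sprayed onto the foliage, and effects were scored three weeks later using previously defined criteria.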

barnyard grass [7] = assay: Test Example 5: herbicidal effect by foliage application, plastic box (Table 20, symbol H); format: in vivo, barnyard grass (Echinochloa crus-galli); conditions: foliage application, evaluated three weeks after application
Procedure, shortened: as §1

windgrass [8] = assay: Test Example 4: herbicidal effect by soil treatment (Table 19, symbol L); format: in vivo, windgrass (Apera spica-venti); conditions: amount of applied herbicide 320 g/ha
Excerpt: as §2, §3

lambsquarters [9] = assay: Test Example 5: herbicidal effect by foliage application, plastic box (Table 20, symbol O); format: in vivo, lambsquarters (Chenopodium album); conditions: foliage application, evaluated three weeks after application
Procedure, shortened: as §1

velvetleaf [10] = assay: Test Example 5: herbicidal effect by foliage application, plastic box (Table 20, symbol M); format: in vivo, velvetleaf (Abutilon theophrasti); conditions: foliage application, evaluated three weeks after application
Procedure, shortened: as §1

Chinese sprangletop = assay: Test Example 3: herbicidal effect by foliage application, Wagner pot (Table 18, symbol D); format: in vivo, chinese sprangletop (Leptochloa chinensis); conditions: amount of applied herbicide 320 g/ha
Procedure, shortened: as §5

green foxtail [11] = assay: Test Example 5: herbicidal effect by foliage application, plastic box (Table 20, symbol G); format: in vivo, green foxtail (Setaria viridis); conditions: foliage application, evaluated three weeks after application
Procedure, shortened: as §1

southern crabgrass [12] = assay: Test Example 4: herbicidal effect by soil treatment (Table 19, symbol F); format: in vivo, southern crabgrass (Digitaria ciliaris); conditions: amount of applied herbicide 320 g/ha
Procedure, shortened: as §4

blackgrass [13] = assay: Test Example 5: herbicidal effect by foliage application, plastic box (Table 20, symbol J); format: in vivo, blackgrass (Alopecurus myosuroides); conditions: foliage application, evaluated three weeks after application
Procedure, shortened: as §1

persian speedwell = assay: Test Example 5: herbicidal effect by foliage application, plastic box (Table 20, symbol R); format: in vivo, Persian speedwell (Veronica persica); conditions: foliage application, evaluated three weeks after application
Procedure, shortened: as §1

Italian ryegrass [14] = assay: Test Example 4: herbicidal effect by soil treatment (Table 19, symbol K); format: in vivo, Italian ryegrass (Lolium multiflorum); conditions: amount of applied herbicide 320 g/ha
Excerpt: as §2, §3

lambsquarters [15] = assay: Test Example 4: herbicidal effect by soil treatment (Table 19, symbol O); format: in vivo, lambsquarters (Chenopodium album); conditions: amount of applied herbicide 320 g/ha
Procedure, shortened: as §4

barnyard grass [16] = assay: Test Example 3: herbicidal effect by foliage application, Wagner pot (Table 18, symbol H); format: in vivo, barnyard grass (Echinochloa crus-galli); conditions: amount of applied herbicide 320 g/ha
Procedure, shortened: as §5

redroot pigweed [17] = assay: Test Example 4: herbicidal effect by soil treatment (Table 19, symbol N); format: in vivo, redroot pigweed (Amaranthus retroflexus); conditions: amount of applied herbicide 320 g/ha
Procedure, shortened: as §4

southern crabgrass [18] = assay: Test Example 5: herbicidal effect by foliage application, plastic box (Table 20, symbol F); format: in vivo, southern crabgrass (Digitaria ciliaris); conditions: foliage application, evaluated three weeks after application
Procedure, shortened: as §1

blackgrass [19] = assay: Test Example 4: herbicidal effect by soil treatment (Table 19, symbol J); format: in vivo, blackgrass (Alopecurus myosuroides); conditions: amount of applied herbicide 320 g/ha
Procedure, shortened: as §4

barnyard grass [20] = assay: Test Example 4: herbicidal effect by soil treatment (Table 19, symbol H); format: in vivo, barnyard grass (Echinochloa crus-galli); conditions: amount of applied herbicide 320 g/ha
Procedure, shortened: as §4

wild oat [21] = assay: Test Example 5: herbicidal effect by foliage application, plastic box (Table 20, symbol I); format: in vivo, wild oat (Avena fatua); conditions: foliage application, evaluated three weeks after application
Procedure, shortened: as §1

chickweed [22] = assay: Test Example 4: herbicidal effect by soil treatment (Table 19, symbol P); format: in vivo, common chickweed (Stellaria media); conditions: amount of applied herbicide 320 g/ha
Procedure, shortened: as §4

Italian ryegrass [23] = assay: Test Example 5: herbicidal effect by foliage application, plastic box (Table 20, symbol K); format: in vivo, Italian ryegrass (Lolium multiflorum); conditions: foliage application, evaluated three weeks after application
Procedure, shortened: as §1

COc1ccc(-c2sc3ccc(Cl)cc3c2-c2c(O)c(C)nn(C)c2=O)cc1C [2-119]
herbicidal effect on L: windgrass (windgrass [1]; 320 g/ha): 0 (Herbicidal rate of 5% or less (almost no effect))
I: wild oat, herbicidal effect rating (wild oat [2]): 0 (Herbicidal rate of 5% or less (almost no effect))
herbicidal effect on N: redroot pigweed (redroot pigweed [3]; 320 g/ha): 0 (Herbicidal rate of 5% or less (almost no effect))
M: velvetleaf, herbicidal effect rating (velvetleaf [4]): 0 (Herbicidal rate of 5% or less (almost no effect))
G: green foxtail, herbicidal effect rating (green foxtail [5]): 0 (Herbicidal rate of 5% or less (almost no effect))
herbicidal effect on P: chickweed (chickweed [6]; 320 g/ha): 1 (Herbicidal rate of 5% or more and less than 20%)
herbicidal effect on E: rice flat sedge (rice flat sedge): 3 (Herbicidal rate of 40% or more and less than 70%)
herbicidal effect on H: barnyard grass (barnyard grass [7]; 320 g/ha): 1 (Herbicidal rate of 5% or more and less than 20%)
L: windgrass, herbicidal effect rating (windgrass [8]): 0 (Herbicidal rate of 5% or less (almost no effect))
herbicidal effect on O: lambsquarters (lambsquarters [9]; 320 g/ha): 3 (Herbicidal rate of 40% or more and less than 70%)
herbicidal effect on M: velvetleaf (velvetleaf [10]; 320 g/ha): 3 (Herbicidal rate of 40% or more and less than 70%)
herbicidal effect on D: Chinese sprangletop (Chinese sprangletop): 2 (Herbicidal rate of 20% or more and less than 40%)
herbicidal effect on G: green foxtail (green foxtail [11]; 320 g/ha): 0 (Herbicidal rate of 5% or less (almost no effect))
F: southern crabgrass, herbicidal effect rating (southern crabgrass [12]): 0 (Herbicidal rate of 5% or less (almost no effect))
herbicidal effect on J: blackgrass (blackgrass [13]; 320 g/ha): 3 (Herbicidal rate of 40% or more and less than 70%)
herbicidal effect on R: persian speedwell (persian speedwell; 320 g/ha): 3 (Herbicidal rate of 40% or more and less than 70%)
K: Italian ryegrass, herbicidal effect rating (Italian ryegrass [14]): 0 (Herbicidal rate of 5% or less (almost no effect))
O: lambsquarters, herbicidal effect rating (lambsquarters [15]): 2 (Herbicidal rate of 20% or more and less than 40%)
herbicidal effect on H: barnyard grass (barnyard grass [16]): 3 (Herbicidal rate of 40% or more and less than 70%)
N: redroot pigweed, herbicidal effect rating (redroot pigweed [17]): 0 (Herbicidal rate of 5% or less (almost no effect))
herbicidal effect on F: southern crabgrass (southern crabgrass [18]; 320 g/ha): 0 (Herbicidal rate of 5% or less (almost no effect))
J: blackgrass, herbicidal effect rating (blackgrass [19]): 0 (Herbicidal rate of 5% or less (almost no effect))
H: barnyard grass, herbicidal effect rating (barnyard grass [20]): 0 (Herbicidal rate of 5% or less (almost no effect))
herbicidal effect on I: wild oat (wild oat [21]; 320 g/ha): 0 (Herbicidal rate of 5% or less (almost no effect))
P: chickweed, herbicidal effect rating (chickweed [22]): 0 (Herbicidal rate of 5% or less (almost no effect))
herbicidal effect on K: Italian ryegrass (Italian ryegrass [23]; 320 g/ha): 0 (Herbicidal rate of 5% or less (almost no effect))

COCCSc1ccc(-c2sc3ccc(F)cc3c2-c2c(O)c(C)nn(C)c2=O)cc1 [2-265]
L: windgrass, herbicidal effect (criteria 0-5) (windgrass [1]; AAH 320 g/ha): 0 (Herbicidal rate of 5% or less (almost no effect))
herbicidal effect on I: wild oat (wild oat [2]): 0 (Herbicidal rate of 5% or less (almost no effect))
N: redroot pigweed, herbicidal effect (criteria 0-5) (redroot pigweed [3]; AAH 320 g/ha): 5 (Herbicidal rate of 90% or more (almost completely withered))
herbicidal effect on M: velvetleaf (velvetleaf [4]): 3 (Herbicidal rate of 40% or more and less than 70%)
herbicidal effect on G: green foxtail (green foxtail [5]): 4 (Herbicidal rate of 70% or more and less than 90%)
P: chickweed, herbicidal effect (criteria 0-5) (chickweed [6]; AAH 320 g/ha): 5 (Herbicidal rate of 90% or more (almost completely withered))
herbicidal effect on E: rice flat sedge (rice flat sedge): 5 (Herbicidal rate of 90% or more (almost completely withered))
H: barnyard grass, herbicidal effect (criteria 0-5) (barnyard grass [7]; AAH 320 g/ha): 4 (Herbicidal rate of 70% or more and less than 90%)
herbicidal effect on L: windgrass (windgrass [8]): 0 (Herbicidal rate of 5% or less (almost no effect))
O: lambsquarters, herbicidal effect (criteria 0-5) (lambsquarters [9]; AAH 320 g/ha): 4 (Herbicidal rate of 70% or more and less than 90%)
M: velvetleaf, herbicidal effect (criteria 0-5) (velvetleaf [10]; AAH 320 g/ha): 5 (Herbicidal rate of 90% or more (almost completely withered))
herbicidal effect on D: Chinese sprangletop (Chinese sprangletop): 4 (Herbicidal rate of 70% or more and less than 90%)
G: green foxtail, herbicidal effect (criteria 0-5) (green foxtail [11]; AAH 320 g/ha): 5 (Herbicidal rate of 90% or more (almost completely withered))
herbicidal effect on F: southern crabgrass (southern crabgrass [12]): 3 (Herbicidal rate of 40% or more and less than 70%)
J: blackgrass, herbicidal effect (criteria 0-5) (blackgrass [13]; AAH 320 g/ha): 0 (Herbicidal rate of 5% or less (almost no effect))
R: persian speedwell, herbicidal effect (criteria 0-5) (persian speedwell; AAH 320 g/ha): 5 (Herbicidal rate of 90% or more (almost completely withered))
herbicidal effect on K: Italian ryegrass (Italian ryegrass [14]): 0 (Herbicidal rate of 5% or less (almost no effect))
herbicidal effect on O: lambsquarters (lambsquarters [15]): 4 (Herbicidal rate of 70% or more and less than 90%)
herbicidal effect on H: barnyard grass (barnyard grass [16]): 5 (Herbicidal rate of 90% or more (almost completely withered))
herbicidal effect on N: redroot pigweed (redroot pigweed [17]): 5 (Herbicidal rate of 90% or more (almost completely withered))
F: southern crabgrass, herbicidal effect (criteria 0-5) (southern crabgrass [18]; AAH 320 g/ha): 4 (Herbicidal rate of 70% or more and less than 90%)
herbicidal effect on J: blackgrass (blackgrass [19]): 0 (Herbicidal rate of 5% or less (almost no effect))
herbicidal effect on H: barnyard grass (barnyard grass [20]): 2 (Herbicidal rate of 20% or more and less than 40%)
I: wild oat, herbicidal effect (criteria 0-5) (wild oat [21]; AAH 320 g/ha): 3 (Herbicidal rate of 40% or more and less than 70%)
herbicidal effect on P: chickweed (chickweed [22]): 0 (Herbicidal rate of 5% or less (almost no effect))
K: Italian ryegrass, herbicidal effect (criteria 0-5) (Italian ryegrass [23]; AAH 320 g/ha): 2 (Herbicidal rate of 20% or more and less than 40%)
